System: bananas
Assay: Example 1: bananas bagged at harvest, shipped, ethylene-ripened, exposed 12 hr to MCP, stored at approx. 20° C.; sugar spots, color, shelf life
Assay type: in vivo, Musa
Parameters: key to Sugar Spot Ratings: 0 = no spots, 1 = few, 2 = moderate, 3 = severe spots (group average)
Text: Each cluster of bananas was rated daily for sugar spots. Clusters were rated using the following scale:
0=no spots; 1=few spots; 2=moderate spots; 3=severe spots
Clusters with rating of 0-1 are commercially desirable to consumers. Clusters with ratings of 2-3 are unacceptable to consumers. In the results below, the average rating for all the clusters in a given treatment group is reported.
The color of banana peels is rated according to a seven stage rating scale: stage 1 (dark green); stage 2 (all light green); stage 3 (half green and half yellow); stage 4 (more yellow than green); stage 5 (green tips and necks); stage 6 (all yellow; maybe light green necks, no green tips); stage 7 (yellow flecked with brown). Consumers generally prefer to eat bananas in stage 5 or stage 6.
Bananas were harvested in Columbia and placed in bags. Three types of bags were used: • (1) non-MAP polymeric film bag, sized to hold 18 kg of bananas (“poly liner”). Each bag has two or more holes, each with diameter of approximately 20 mm or larger. • (2) non-MAP polymeric film bag with 44 large holes (hole diameter 10 mm), sized to hold 1.4 kg of bananas (“T-bag”); and • (3) MAP bag (as described above), sized to hold about 1.4 kg of bananas.
The appropriate weight of bananas was placed in each type of bag after harvest and prior to shipment. Bags were placed in standard cardboard carrying devices. Bananas then were shipped to Philadelphia, Pa., where they were exposed to ethylene using a standard 4 day ripening schedule. Standard commercial methods of shipment and exposure to ethylene were used.
The Test Protocol that was used was as follows. 312 MAP bags were packed. Each bag held approximately 1.4 kg (3 lb) of bananas. Thirteen such bags were packed in each box. Total weight of bananas in MAP bags was approximately 432 kg. Approximately 216 kg of bananas were placed into poly liners, which were placed into boxes identical to those used for the MAP bags. Approximately 216 kg of bananas were placed into T bags, which were placed into boxes identical to those used for the MAP bags. The gross fruit weight of the each box was approximately 19.5 kg (43 lb).
Banana heads (industry nomenclature is rasimo) were harvested at 14 weeks of age (typical for US markets). Heads were cut into large, medium and small hands. The hands were washed in chlorinated water tanks. The washed hands were further broken into clusters. Clusters were packed into bags that each held approximately 1.4 kg (3 lb) or bags that each held approximately 18 kg (40 lb). Bags were placed into standard cardboard boxes, and each box held approximately 18-20 kg. Each box had 8 round holes of diameter 40 mm, plus two larger oval holes that also served as hand-holds for carrying.
The MAP-packaged bananas were packaged as follows: Clusters of approximately 1.4 kg were carefully placed into microperforated bags, and the bags were sealed by twisting the open side of the bag, folding down the twisted end, and placing a rubber band around the twisted and folded end of the bag.
All bananas were quickly cooled to 13.3° C. and held at that temperature for shipping. During shipping, air ventilation was approximately 15%.
Bags were not opened during shipping or ripening. Temperature was monitored in some of the bags by placing a temperature probe in one banana in that bag prior to sealing.
Bananas were ripened in forced-air ripening rooms as follows. On day 1, bananas were kept at 18° C. (64° F.) and exposed to exogenous ethylene (150 ppm for 24 hours). No further exogenous ethylene was used. After day 1, bananas were kept at 18° C. for two days and then at 10° C. for one day. The temperatures given are pulp temperatures and not room temperatures. Humidity was 85% to 95%.
Bananas were then shipped to Spring House, Pa. Bananas arrived at color stage 2.5-3. The bananas were randomly divided into treatment sets as follows: […]

CC1=CC1 [1-MCP, 1-methylcyclopropene] was tested, and the additional shelf life (1-MCP alone (no MAP)) was 1 to 2 days, the “Sugar Spot Ratings” value (MAP, 300 ppb MCP, Day 0) was 0 and the “Sugar Spot Ratings” value (MAP, 300 ppb MCP, Day 1) was 0. For the same compound, the “Sugar Spot Ratings” value (MAP, 300 ppb MCP, Day 2) was 0.00, the “Sugar Spot Ratings” value (MAP, 300 ppb MCP, Day 3) was 0.19 and the “Sugar Spot Ratings” value (MAP, 300 ppb MCP, Day 4) was 0.53. The “Sugar Spot Ratings” value (MAP, 300 ppb MCP, Day 5) was 0.92, the “Sugar Spot Ratings” value (MAP, 300 ppb MCP, Day 6) was 1.61 and the “Sugar Spot Ratings” value (MAP, 1000 ppb MCP, Day 0) was 0. The “Sugar Spot Ratings” value (MAP, 1000 ppb MCP, Day 1) was 0, the “Sugar Spot Ratings” value (MAP, 1000 ppb MCP, Day 2) was 0.11 and the “Sugar Spot Ratings” value (MAP, 1000 ppb MCP, Day 3) was 0.22. The “Sugar Spot Ratings” value (MAP, 1000 ppb MCP, Day 4) was 0.56, the “Sugar Spot Ratings” value (MAP, 1000 ppb MCP, Day 5) was 1.56 and the “Sugar Spot Ratings” value (MAP, 1000 ppb MCP, Day 6) was 1.89. The “Sugar Spot Ratings” value (T bags, 300 ppb MCP, Day 0) was 0, the “Sugar Spot Ratings” value (T bags, 300 ppb MCP, Day 1) was 0 and the “Sugar Spot Ratings” value (T bags, 300 ppb MCP, Day 2) was 0. For the same compound, the “Sugar Spot Ratings” value (T bags, 300 ppb MCP, Day 3) was 0.94, the “Sugar Spot Ratings” value (T bags, 300 ppb MCP, Day 4) was 2.44 and the “Sugar Spot Ratings” value (T bags, 300 ppb MCP, Day 5) was 2.78. The “Sugar Spot Ratings” value (T bags, 1000 ppb MCP, Day 0) was 0, the “Sugar Spot Ratings” value (T bags, 1000 ppb MCP, Day 1) was 0 and the “Sugar Spot Ratings” value (T bags, 1000 ppb MCP, Day 2) was 0. The “Sugar Spot Ratings” value (T bags, 1000 ppb MCP, Day 3) was 0.44, the “Sugar Spot Ratings” value (T bags, 1000 ppb MCP, Day 4) was 2.06 and the “Sugar Spot Ratings” value (T bags, 1000 ppb MCP, Day 5) was 2.61. The “visual quality maintained beyond the standard handling method” value (combined treatment 1-MCP and MAP) was 10 days, the “Sugar Spot Ratings” value (poly liner, 300 ppb MCP, Day 0) was 0 and the “Sugar Spot Ratings” value (poly liner, 300 ppb MCP, Day 1) was 0. For the same compound, the “Sugar Spot Ratings” value (poly liner, 300 ppb MCP, Day 2) was 0.06, the “Sugar Spot Ratings” value (poly liner, 300 ppb MCP, Day 3) was 0.33 and the “Sugar Spot Ratings” value (poly liner, 300 ppb MCP, Day 4) was 2.17. For the same compound, the “Sugar Spot Ratings” value (poly liner, 300 ppb MCP, Day 5) was 2.89, the “Sugar Spot Ratings” value (poly liner, 1000 ppb MCP, Day 0) was 0 and the “Sugar Spot Ratings” value (poly liner, 1000 ppb MCP, Day 1) was 0. For the same compound, the “Sugar Spot Ratings” value (poly liner, 1000 ppb MCP, Day 2) was 0.00, the “Sugar Spot Ratings” value (poly liner, 1000 ppb MCP, Day 3) was 0.33 and the “Sugar Spot Ratings” value (poly liner, 1000 ppb MCP, Day 4) was 2.67. The “Sugar Spot Ratings” value (poly liner, 1000 ppb MCP, Day 5) was 2.89.
